Read-outs that look alike come from different tables or passages of the source. Blank lines part the entries; values can stand above or below the molecule they belong to.
How the values were obtained:
[1] = From the text: (§1) A flat sheet microporous polypropylene membrane (Celgard 2400, 38% porosity, 0.05 micron average pore size, 25 micron thick) was wet with polypropylene glycol (PPG) MW 4000 obtained from the Dow Chemical Company by putting a few drops of PPG on the membrane sheet and spreading it out. […] The excess PPG was wiped off and the membrane with immobilized PPG was ready for use. […] The same wetting procedure can be used for hollow fiber membranes. In a module form, the fibers can be wet by pumping PPG slowly through the lumens of the fibers. The excess PPG left in the fibers can thereafter be removed by either blowing air or passing water through the tube side of the fibers.
A flat sheet immobilized liquid membrane prepared according to Example 1 was placed between the two compartments of a cell. Surface area of the membrane was 8 cm^2. One cell compartment contained an aqueous waste solution containing para-nitrophenol (PNP) at a concentration of 4000 to 5000 mg/L and 20 wt % KCl. The other compartment contained 0.1N NaOH as an aqueous strip solution. Both solutions were circulated by pumps. Total volume of liquid on each side of the membrane was 100 ml. The system was at room temperature. PNP levels in both compartments were measured periodically using a spectrophotometric method.

[2] = Partition coefficient between polyalkylene glycol (PPG) and water
From the text: *Kp = Acid concentration in PPG .div. Acid Concentration in H2 O at […]

[3] = known octanol/water system; cited from earlier work
Remark: listed apart in the source
[4] = Stability/integrity of supported liquid membrane; type: physicochemical
From the text: as §1
The process of Example 2 was repeated but with octanol, a typical organic solvent with high affinity for p-nitrophenol, as the liquid membrane.

[5] = Transport across hollow fiber supported liquid membrane (Examples 5 and 6); type: physicochemical; conditions: Celgard X20 400 hollow fibers; after 3 hours (Example 5)
From the text: Celgard X20 400 hollow fibers (40% porosity, 0.065 micron pore size, internal diameter 400 microns, outer diameter 460 microns) were potted into a module containing 54 fibers that were 18 cm long. The total membrane area was 120 cm^2. PPG MW 4000 was pumped through the lumens of the fibers to wet them. Water was then pumped through to remove excess PPG. The module having PPG immobilized in the fiber walls was then used to remove PNP from an aqueous solution containing approximately 4000 to 5000 mg/L PNP and 20 wt % KCl. The aqueous stripping solution was 0.1N NaOH. The set up was similar to that used in Example 2. The initial rate of PNP transport across the hollow fiber membrane was about 4 mg/hr-cm^2 membrane area. After 3 hours of operation PNP concentration in the stripping side went up to 4400 mg/L and that in the feed side dropped to 45 mg/L.
Using a procedure similar to that of Example 5 but using polysulfone hollow fibers (Permea, St. Louis) as the membrane support, selective extraction of PNP from an aqueous waste solution was examined. Ultrafiltration polysulfone hollow fibers (18 cm long, MW cutoff 160,000, OD 1150 microns, ID 870 microns) were potted into a module containing 10 fibers that were 17.6 cm long. The effective membrane area was about 48 cm^2. The initial rate of transport was about 1 mg PNP/hr-cm^2 membrane area.

[6] = 65° C. (Example 26)
Procedure: Celgard 2500 (flat sheet microporous polypropylene membrane) was wetted with PPG-4000 and sandwiched between two compartments of a membrane cell as described in Example 2. One compartment was filled with a aqueous solution containing 5000 mg/L butanol. Air was swept in the other compartment to remove butanol diffusing through the membrane, thus creating driving force for further transport. The system was operated at 65° C.

[7] = 5 wt % acid, 20 wt % KCl, strip 0.1N NaOH, room temperature (Table 1)
[8] = PPG in Celgard 2400, strip 0.1N NaOH, room temperature (Table 3)
[9] = PPG MW about 4000 in CELGARD 2400, 20 wt % NaCl
[10] = Celgard 2402, overnight (Example 4)
[11] = Celgard 2500, overnight (Example 3)
[12] = overnight, feed pH 5.4, 20 wt. % KCl (Example 29)
[13] = 30 wt. % Pluronic L-81 in PPG-4000 (Example 23)

Initial Rate [1, 7]: 1.6 mg/hr-cm^2
Compound: CC(=O)O [Acetic Acid (C2), Acetic Acid]

Compound: C=CC(=O)O [Acrylic Acid]
K PPG-4000/Water [2]: 5
K Octanol/Water [3]: 1.35

Permeability (not told): 42 ×10⁻⁶ cm/s
Compound: CCCC(=O)O [Butyric Acid (C4), Butyric Acid]

Compound: CCCCCC(=O)O [Caproic Acid (C6), Caproic Acid]
initial rate of caproic acid transport relative to PPG membrane ([1]; carbamate-functional liquid membrane drawing 12 (Example 2d)): about the same as with PPF-4000
caproic acid level in waste solution ([1]; carbamate-functional liquid membrane drawing 12, after 23 hours, initial 1800 ppm (Example 2d)): 13 ppm
Partition Coeff. (Kp) [2]: 83
Permeability [8]: 400 ×10⁻⁶ cm/s

Compound: O=CO [Formic Acid (C1), Formic Acid]
Initial Rate [1]: 1.0 mg/hr-cm^2
Partition Coeff. (Kp) ([2]; acid concentration in PPG ÷ acid concentration in H2O at equilibrium): 0.45
Permeability [8]: 5.5 ×10⁻⁶ cm/s
Rate (pH 1.6): 1.0
Rate (pH 5): 0.026

Compound: [Cl-].[K+] [KCl]
chloride concentration on waste side ([1]; Example 2): over 100 g/L
chloride content in caustic strip solution ([1]; Example 2, overnight, measure of KCl transport): 0.049 g/L

Compound: [Cl-].[Na+] [NaCl]
salt passage through liquid membrane [4, 9]: essentially no salt to pass through

Compound: O=[N+]([O-])c1ccc(O)cc1 [PNP, para-nitrophenol]
PNP concentration in feed side [1, 10]: 10 mg/L
PNP concentration in stripping side [1, 10]: 4900 mg/L
PNP concentration in feed side [1, 11]: 5 mg/L
PNP concentration in stripping side [1, 11]: 4430 mg/L
separation factor for PNP over KCl ([1]; Example 2): at least 2000
PNP concentration difference caustic side vs waste side ([1]; Example 2, overnight): over 1000 times
PNP concentration in caustic side ([1]; Example 2, overnight): about 3800 mg/L
PNP concentration in waste side ([1]; Example 2, overnight, initial 4000 to 5000 mg/L): about 3 mg/L
PNP level in waste solution ([1]; Igepal CO-210 liquid membrane, after 24 hours, initial 4397 ppm (Example 2f)): 10 ppm
ratio of PNP concentration caustic side over waste side ([1]; PBG MW 2000, overnight (Example 20)): about 1300
PNP level in waste solution ([1]; carbamate-functional liquid membrane drawing 12, after 5.5 hours, initial 4300 ppm (Example 2c)): 25 ppm
PNP level in waste solution ([1]; carbamate-functional liquid membrane drawing 12, overnight (Example 2c)): 5 ppm
PNP level in waste solution ([1]; castor oil liquid membrane, after 96 hours, initial 4272 ppm (Example 2e)): 4 ppm
PNP removal from the feed solution [1, 12]: about 99%
PNP ratio (concentration of strip side to feed side) ([1]; polybutylene glycol MW approximately 5000, overnight (Example 21)): 120
PNP level in waste solution ([1]; strip 50 wt. % PEG-200, after about 9 hours, initial 4449 ppm (Example 2b)): 192 ppm
PNP level in waste solution ([1]; strip PEG-200, after about 8 hours, initial 4700 ppm (Example 2a)): 12 ppm
PNP level in waste solution ([1]; strip PEG-200, after two days, initial 4700 ppm (Example 2a)): 0.6 ppm
K PPG-4000/Water [2]: 300
PNP concentration in feed side [5]: 45 mg/L
PNP concentration in stripping side [5]: 4400 mg/L

Compound: Oc1ccccc1 [Phenol]
concentration in the feed [1]: about 5 mg/L
concentration in the stripping solution [1]: about 5050 mg/L
K PPG-4000/Water [2]: 150

Initial Rate [1, 7]: 5.4 mg/hr-cm^2
Permeability (not told): 33 ×10⁻⁶ cm/s
Compound: CCC(=O)O [Propionic Acid (C3), Propionic Acid]

Partition Coeff. (Kp) [2]: 24.6
Permeability (not told): 160 ×10⁻⁶ cm/s
Compound: CCCCC(=O)O [Valeric Acid (C5), Valeric Acid]

Compound: N.N.O=S(=O)(O)O [ammonium sulfate]
ammonium sulfate detected in the stripping solution [1]: no ammonium sulfate was detected

Compound: O=C(O)c1ccccc1 [benzoic acid]
benzoic acid passage through membrane ([1]; feed pH 5.4 (Example 29)): virtually blocked by the membrane
remaining in feed / transported ([1]; overnight, feed pH 2.5 (Example 30)): virtually gone from the feed
benzoic acid detected in aqueous strip solution [1, 12]: < 1 % of feed
benzoic acid level in strip solution ([1]; overnight, from hydrolysis of ethyl benzoate (Example 33)): about 420 mg/L

initial rate of butanol removal ([6]; PPG-4000 in Celgard 2500, air sweep): about 7 mg/hr-cm^2
butanol concentration in the aqueous solution ([6]; after about 5 hr, initial 5000 mg/L): about 400 mg/L
Compound: CCCCO [butanol]

Compound: CCOC(=O)c1ccccc1 [ethyl benzoate]
permeability of ethyl benzoate through the membrane ([1]; PPG membrane, feed pH 7.1, strip 0.1N NaOH, 23° C. (Example 33)): about 9×10^-4 cm/sec
ethyl benzoate concentration in the feed side ([1]; overnight, initial 500 mg/L (Example 33)): 1 mg/L

Compound: N#C/C=C/C#N [fumaronitrile]
initial rate of fumaronitrile transport [1]: about 0.5 mg/hr-cm^2

change of initial rate of maleimide transport vs Example 22 [1, 13]: more than doubled
initial rate of maleimide transport [1, 13]: 2.5 mg/hr-cm^2
initial rate of maleimide transport ([1]; PPG-4000, 7,000 mg/L maleimide, 40 wt. % ammonium sulfate (Example 22)): about 1.2 mg/hr-cm^2
Compound: O=C1C=CC(=O)N1 [maleimide]

time to breakdown of immobilized liquid membrane ([4]; octanol liquid membrane in operation (Example 25)): about 10 minutes
Compound: CCCCCCCCO [octanol, reference compound]

Compound: Nc1ccc([N+](=O)[O-])cc1 [p-nitroaniline]
initial rate of PNA transport ([1]; feed pH 9, ~500 mg/L, strip 0.1N nitric acid (Example 8)): about 1.5 mg/hr-cm^2
PNA level in the feed ([1]; overnight (Example 8)): 70 mg/L
PNA level in the stripping solution ([1]; overnight (Example 8)): 450 mg/L

water movement (diffusion) through liquid membrane [4, 9]: very little water movement
Compound: O [water]
